Structures can show the parent of a compound that is named as a salt.

Series [1] in a line: In vitro conversion of prodrugs by S9 liver fractions. In kind it is in vitro ADME. The settings on record: purified S9 fractions (3 mg/ml), compound 10 ug/ml, 37° C., pH 7.2, 90 minutes, HPLC. On the procedure: IN VITRO CONVERSION OF PRODRUGS
The conversion of the prodrugs by S9 liver fractions was determined by the following method. The S9 liver-fraction suspension (IIAM) was thawed and the suspension was stirred by vortex. The suspension was mixed with 12M urea at 1:7, v:v, (yielding […] final concentration) and further stirred by vortex. The S9 suspension solution was partially purified by solid phase extraction (Vac-Elut apparatus:C18 columns (Varian #1210-2001)) eluting with acetonitrile. The fractions were mixed by vortex and concentrated to dryness under nitrogen (no heat). The fractions were resuspended in 100 μl acetonitrile:phosphate buffer (8.3 mM, pH 7.2) (20:80).
The compounds were dissolved in water (0.2 ml, 10 ug/ml) and incubated at 37° C. (pH 7.2, 90 minutes) with purified S9 fractions (0.2 ml, 3 mg/ml). Conversion of the prodrug to the active COX-2 inhibitor was followed by HPLC (Beckmann System Gold, Novapak C18 column (3.9×150 mm), acetonitrile:phosphate buffer (8.3 mM, pH 7.2) (20:80-40:60), UV detection 240 nm). Quantitation of the conversion of the prodrug was determined by measurement of integrated HPLC peak area.

The subject of series [2] is Male Sprague-Dawley rats. Kind of series: Rat Carrageenan Foot Pad Edema Test. In kind it is in vivo. The settings on record: dosed orally one hour before carrageenan, foot volume three hours after carrageenan. On the procedure:
Rat Carrageenan Foot Pad Edema Test
The carrageenan foot edema test was performed with materials, reagents and procedures essentially as described by Winter, et al., (Proc. Soc. Exp. Biol. Med., 111, 544 (1962)). Male Sprague-Dawley rats were selected in each group so that the average body weight was as close as possible. Rats were fasted with free access to water for over sixteen hours prior to the test. The rats were dosed orally (1 mL) with compounds suspended in vehicle containing 0.5% methylcellulose and 0.025% surfactant, or with vehicle alone. One hour later a subplantar injection of 0.1 mL of 1% solution of carrageenan/sterile 0.9% saline was administered and the volume of the injected foot was measured with a displacement plethysmometer connected to a pressure transducer with a digital indicator. Three hours after the injection of the carrageenan, the volume of the foot was again measured. The average foot swelling in a group of drug-treated animals was compared with that of a group of placebo-treated animals and the percentage inhibition of edema was determined (Otterness and Bliven, Laboratory Models for Testing NSAIDs, in Non-steroidal Anti-Inflammatory Drugs, (J. Lombardino, ed. 1985)).
In general terms: Carrageenan injected into the paw causes an acute inflammation.

The test system of series [3] is Male Sprague-Dawley rats. The experiment in a line: Rat Carrageenan-induced Analgesia Test. Conditions: dosed orally, inhibition of hyperalgesic foot withdrawal, three hours after carrageenan. In kind it is in vivo. On the procedure: Rat Carrageenan-induced Analgesia Test
The rat carrageenan analgesia test was performed with materials, reagents and procedures essentially as described by Hargreaves, et al., (Pain, 32, 77 (1988)). Male Sprague-Dawley rats were treated as previously described for the Carrageenan Foot Pad Edema test. Three hours after the injection of the carrageenan, the rats were placed in a special plexiglass container with a transparent floor having a high intensity lamp as a radiant heat source, positionable under the floor. After an initial twenty minute period, thermal stimulation was begun on either the injected foot or on the contralateral uninjected foot. A photoelectric cell turned off the lamp and timer when light was interrupted by paw withdrawal. The time until the rat withdraws its foot was then measured. The withdrawal latency in seconds was determined for the control and drug-treated groups, and percent inhibition of the hyperalgesic foot withdrawal determined.

Regarding `CCC(=O)NS(=O)(=O)c1ccc(-c2c(-c3ccccc3)noc2C)cc1` [Example 18, N-[[4-(5-Methyl-3-phenylisoxazol-4-yl]phenyl]sulfonyl]propanamide, Sodium Salt], in series [1], the “Metabolism of Prodrugs: Parent (% remaining)” value (shortened to “Metabolism … (% remaining)”) is listed as 3.3%.

Usually melting point stands for the temperature of the solid-liquid transition. In the case of `CC(=O)NS(=O)(=O)c1ccc(-c2c(-c3cccc(F)c3)noc2C)cc1` [Example 13, N-[[4-[3-(3-Fluorophenyl)-5-methylisoxazol-4-yl]phenyl]sulfonyl]acetamide], the melting point was 144 to 145 °C. In the series on Male Sprague-Dawley rats [2], the “RAT PAW EDEMA % Inhibition @ 30 mg/kg body weight” value was 58%. In the series on Male Sprague-Dawley rats [3], the “ANALGESIA % Inhibition @ 10 mg/kg body weight” value is reported as 61.5%.

Take `CCCC(=O)NS(=O)(=O)c1ccc(-c2c(-c3ccccc3)noc2C)cc1` [Example 25, N-[[4-(5-Methyl-3-phenylisoxazol-4-yl)phenyl]sulfonyl]butanamide, Sodium Salt]: the “Metabolism … (% remaining)” value in series [1] was 0.8%. For the same molecule, the “RAT PAW EDEMA % Inhibition @ 30 mg/kg body weight” value with Male Sprague-Dawley rats [2] was found to be 60%. In the series on Male Sprague-Dawley rats [3], the “ANALGESIA % Inhibition @ 10 mg/kg body weight” value worked out at 33%.

Regarding `CC(=O)NS(=O)(=O)c1ccc(-c2c(-c3cccc(F)c3)noc2C)cc1` [Example 14, N-[[4-[3-(3-Fluorophenyl)-5-methylisoxazol-4-yl]phenyl]sulfonyl]acetamide, Sodium Salt], the “Metabolism … (% remaining)” value in series [1] is 63.4%. Moreover, the “RAT PAW EDEMA % Inhibition @ 30 mg/kg body weight” value in the series on Male Sprague-Dawley rats [2] (Sodium Salt) stood at 65%. For the same molecule, in the series with Male Sprague-Dawley rats [3] (Sodium Salt), the “ANALGESIA % Inhibition @ 10 mg/kg body weight” value came out at 41%.

As to `CCCC(=O)NS(=O)(=O)c1ccc(-n2cc(C(F)(F)F)nc2-c2cncc(C)c2)cc1` [Example 7, N-[[4-[2-(5-Methylpyridin-3-yl)-4-(trifluoromethyl)-1H-imidazol-1-yl]phenyl]sulfonyl]butanamide], the melting point fell in the range of 203 to 204 °C.

On to `CCC(=O)NS(=O)(=O)c1ccc(-c2c(-c3ccccc3)noc2CO)cc1.[Na]`, for which the melting point was in the range of 153.5 to 157.1 °C.

Consider `COC(=O)CCC(=O)NS(=O)(=O)c1ccc(-c2c(-c3ccccc3)noc2C)cc1` [Example 23, Methyl 4-[[[4-(5-methyl-3-phenylisoxazol-4-yl]phenyl]sulfonyl]amino]-4-oxobutanoate], for which the melting point lay within 114.9 to 117.7 °C.

Consider `Cc1onc(-c2ccccc2)c1-c1ccc(S(=O)(=O)NC(=O)CCC(=O)O)cc1` [Example 58, 4-[[[4-(5-Methyl-3-phenylisoxazol-4-yl)phenyl]sulfonyl]amino]-4-oxobutanoic Acid], for which the melting point is 158.4 to 165.4 °C.

In the case of `CC(=O)NS(=O)(=O)c1ccc(-c2c(-c3ccccc3)noc2COC(C)=O)cc1` [Example 73, N-[[4-[5-Acetoxymethyl-3-phenylisoxaxzol-4-yl]phenyl]sulfonyl]acetamide], the melting point was 137 to 139 °C.

Turning to `CC(=O)NS(=O)(=O)c1ccc(-n2cc(C(F)(F)F)nc2-c2cccnc2)cc1` [Example 1, N-[[4-[2-(3-Pyridinyl)-4-(trifluoromethyl)-1H-imidazol-1-yl]phenyl]sulfonyl]acetamide], the melting point lay within 244 to 246 °C.

For the molecule `Cc1onc(-c2ccccc2)c1-c1ccc(S(=O)(=O)NC=O)cc1` [Example 60, N-[[4-(5-Methyl-3-phenylisoxazol-4-yl)phenyl]sulfonyl]formamide], the melting point was 111 to 122 °C.

As for `CCCC(=O)NS(=O)(=O)c1ccc(-c2c(-c3ccccc3)noc2C)cc1` (as salt: sodium) [Example 25, N-[[4-(5-Methyl-3-phenylisoxazol-4-yl)phenyl]sulfonyl]butanamide, Sodium Salt], the melting point fell in the range of 273.5 to 277.7 °C.
